Where two headings read alike, the source gives them in different places.
Key:
[1] = test system: Klebsiella pneumoniae expressing VIM-1 (IHMA599644); assay: Antibiotic potentiation activity: synergistic concentration (MITC95) with imipenem, OD600 growth; type: cell-based; details: for Klebsiella pneumoniae expressing VIM-1 (IHMA 599644) MITC95: concentration giving 95% inhibition of bacterial growth
Outline: (§1)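 Steps: colonies grown overnight at 35 °C; resuspended in saline to OD600 0.11–0.15 by strain; diluted 1:100 into 1.1× CAMHB; imipenem then compound added (antibiotic 4 μg/ml in assay); incubated 35 °C for 22–24 h; absorbance measured.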

[2] = test system: Escherichia coli expressing NDM-1 (CLB30016); assay: as above; type: cell-based; details: for Escherichia coli expressing NDM-1 (CLB 30016) MITC95: concentration giving 95% inhibition of bacterial growth
Outline: as §1

[3] = test system: Serratia marcescens expressing IMP-1 (CL5741); assay: as above; type: cell-based; details: for Serratia marcescens expressing IMP-1 (CL5741) MITC95: concentration giving 95% inhibition of bacterial growth
Outline: as §1

[4] = biological target: IMP-1 (Serratia marcescens, UniProt P52699); assay: biochemical; type: biochemical; details: read-out: IMP-1 IC50
Chain of IMP-1 (P52699 whole entry, looked up): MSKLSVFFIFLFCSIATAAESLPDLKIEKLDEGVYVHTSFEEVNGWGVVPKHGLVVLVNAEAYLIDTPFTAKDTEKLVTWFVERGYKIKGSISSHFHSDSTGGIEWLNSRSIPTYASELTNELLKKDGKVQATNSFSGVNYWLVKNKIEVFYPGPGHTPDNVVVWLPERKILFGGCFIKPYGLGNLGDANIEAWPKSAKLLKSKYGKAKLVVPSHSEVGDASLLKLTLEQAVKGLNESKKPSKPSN

[5] = biological target: NDM-1 (Klebsiella pneumoniae, UniProt C7C422); assay: biochemical; type: biochemical; details: read-out: NDM-1 IC50
Chain of NDM-1 (C7C422 whole entry, looked up, species assumed): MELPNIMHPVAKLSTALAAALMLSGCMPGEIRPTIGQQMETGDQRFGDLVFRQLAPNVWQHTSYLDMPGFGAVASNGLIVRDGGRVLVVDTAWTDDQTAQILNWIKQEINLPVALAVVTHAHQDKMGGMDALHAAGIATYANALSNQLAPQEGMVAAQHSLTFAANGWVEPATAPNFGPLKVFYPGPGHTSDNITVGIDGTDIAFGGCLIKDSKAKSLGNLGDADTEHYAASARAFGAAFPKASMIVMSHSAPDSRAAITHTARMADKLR

[6] = biological target: VIM-1 (Pseudomonas aeruginosa (strain ATCC 15692 / DSM 22644 / CIP 104116 / JCM 14847 / LMG 12228 / 1C / PRS 101 / PAO1), UniProt A0A0F7KYQ8); assay: Enzyme activity: determination of IC50, fluorescence assay with CCF2-FA substrate (VIM-1); type: biochemical
[7] = fluorescence assay with CCF2-FA substrate
[8] = fluorescence assay with CCF2-FA substrate, read-out: VIM-1 IC50
[9] = Klebsiella pneumoniae IHMA599644 (VIM-1), 95% growth inhibition
[10] = (CLB30016, NDM-1), 95% growth inhibition
[11] = Serratia marcescens CL5741 (IMP-1), 95% growth inhibition
[12] = IMP-1 enzyme, CCF2-FA substrate
[13] = NDM-1 enzyme, CCF2-FA substrate
[14] = Klebsiella pneumoniae expressing VIM-1 (IHMA599644), 95% growth inhibition
[15] = Escherichia coli expressing NDM-1 (CLB30016), 95% growth inhibition
[16] = Serratia marcescens expressing IMP-1 (CL5741), 95% growth inhibition
[17] = IMP-1 enzyme, CCF2-FA fluorescence assay
[18] = NDM-1 enzyme, CCF2-FA fluorescence assay
[19] = VIM-1 enzyme, CCF2-FA fluorescence assay, read-out: VIM-1 IC50

Compound | IC50 [4, 7] [nM] | IC50 [5, 7] [nM] | IC50 [6, 8] [nM] | Klebsiella pneumoniae MITC95 [1, 14] [µM] | Escherichia coli MITC95 [2, 15] [µM] | Serratia marcescens MITC95 [3, 16] [µM] | IC50 [4, 17] [nM] | IC50 [5, 18] [nM] | IC50 [6, 19] [nM] | other results
Cc1ccc(Oc2cccc(S(N)(=O)=O)c2-c2nn[nH]n2)cc1 [Example 179, 2-(2H-tetrazol-5-yl)-3-(p-tolyloxy)benzenesulfonamide] | 406 | 10.8 | 1440 |  |  |  |  |  |  | Klebsiella pneumoniae expressing VIM-1 (IHMA 599644) MITC95 [1]: >200 µM; Escherichia coli expressing NDM-1 (CLB 30016) MITC95 [2]: 3.125 µM; Serratia marcescens expressing IMP-1 (CL5741) MITC95 [3]: 37.5 µM
NS(=O)(=O)c1c(C(F)(F)F)ccc(C2CCN(C3CCNCC3)CC2)c1-c1nnn[nH]1 [Example 835, 3-[1-(4-piperidyl)-4-piperidyl]-2-(1H-tetrazol-5-yl)-6-(trifluoromethyl)benzenesulfonamide] | 232 | 96 | 190 |  |  |  |  |  |  | Klebsiella pneumoniae MITC95 ([1]; IHMA599644 (VIM-1), 95% inhibition of bacterial growth): 100 µM; Escherichia coli MITC95 ([2]; CLB30016 (NDM-1), 95% inhibition of bacterial growth): 3.125 µM; Serratia marcescens MITC95 ([3]; CL5741 (IMP-1), 95% inhibition of bacterial growth): 6.25 µM
NS(=O)(=O)c1cccc(-c2ccc(N3CC(CN4CCCC4)C3)nc2)c1-c1nnn[nH]1 [Example 630, 3-[6-[3-(pyrrolidin-1-ylmethyl)azetidin-1-yl]-3-pyridyl]-2-(1H-tetrazol-5-yl)benzenesulfonamide] |  |  |  |  |  |  |  |  |  | Klebsiella pneumoniae MITC95 [1, 9]: 50 µM; Escherichia coli MITC95 [2, 10]: 1.172 µM; Serratia marcescens MITC95 [3, 11]: 12.5 µM; IC50 [4, 12]: 388 nM; IC50 [5, 13]: 32.3 nM; IC50 ([6]; VIM-1 enzyme, CCF2-FA substrate, read-out: VIM-1 IC50): 635 nM
Nc1n[nH]c2ccc(-c3ccc(C(F)(F)F)c(S(N)(=O)=O)c3-c3nnn[nH]3)cc12 [Example 480, 3-(3-amino-1H-indazol-5-yl)-2-(1H-tetrazol-5-yl)-6-(trifluoromethyl)benzenesulfonamide] |  |  |  | 2.344 | 0.7813 | 0.7813 | 9.14 | 0.871 | 0.264 | 
NS(=O)(=O)c1c(C(F)(F)F)ccc(-c2cnn3ccccc23)c1-c1nnn[nH]1 [Example 710, 3-pyrazolo[1,5-a]pyridin-3-yl-2-(1H-tetrazol-5-yl)-6-(trifluoromethyl)benzenesulfon-amide] |  |  |  |  |  |  |  |  |  | Klebsiella pneumoniae MITC95 [1, 9]: 12.5 µM; Escherichia coli MITC95 [2, 10]: 6.25 µM; Serratia marcescens MITC95 [3, 11]: 6.25 µM; IC50 [4, 12]: 2.08 nM; IC50 [5, 13]: 0.89 nM; IC50 ([6]; VIM-1 IC50, VIM-1 enzyme, CCF2-FA substrate): 0.168 nM
C[N+]1(C)CCC(c2ccc(-c3ccc(C(F)(F)F)c(S(N)(=O)=O)c3-c3nn[nH]n3)cc2)C1 (stereo not drawn) [Example 444, 1,1-dimethyl-3-(3′-sulfamoyl-2′-(2H-tetrazol-5-yl)-4′-(trifluoromethyl)-[1,1′-biphenyl]-4-yl)pyrrolidin-1-ium] |  |  |  | 4.688 | 2.344 | 0.3906 | 3.27 | 2.5 | 1.35 | 
CN1CCN(c2ncc(-c3cccc(S(N)(=O)=O)c3-c3nnn[nH]3)cn2)CC1 [Example 128, 3-(2-(4-methylpiperazin-1-yl)pyrimidin-5-yl)-2-(1H-tetrazol-5-yl)benzenesulfonamide] | 453 | 7.95 | 1140 |  |  |  |  |  |  | Klebsiella pneumoniae expressing VIM-1 (IHMA 599644) MITC95 [1]: >200 µM; Escherichia coli expressing NDM-1 (CLB 30016) MITC95 [2]: 1.563 µM; Serratia marcescens expressing IMP-1 (CL5741) MITC95 [3]: 9.375 µM
Nc1ncc2ccc(-c3cccc(S(N)(=O)=O)c3-c3nnn[nH]3)cc2n1 [Example 420, 3-(2-Aminoquinazolin-7-yl)-2-(1H-tetrazol-5-yl)benzenesulfonamide] |  |  |  | 18.75 | 1.563 | 9.375 | 217 | 4.74 |  | IC50 ([6]; VIM-1 IC50, VIM-1 enzyme, CCF2-FA fluorescence assay): 30.7 nM
NCc1ccc(-c2ccc(C(F)(F)F)c(S(N)(=O)=O)c2-c2nn[nH]n2)cc1 [Example 439, 4′-(aminomethyl)-2-(2H-tetrazol-5-yl)-4-(trifluoromethyl)-[1,1′-biphenyl]-3-sulfonamide] |  |  |  | 1.563 | 0.7813 | 0.5859 | 20.6 | 11.9 | 4.05 | 

— patent US9708336B2, “Metallo-beta-lactamase inhibitors” (priority 2014, dated 2017)
